From PubChem BioAssay (NCI)
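Where inhibition never reached the appropriate level, the endpoint shown equals the highest concentration tested. Otherwise, values were interpolated linearly from a five-concentration, 48-hour dose response in 96-well plates. The concentration for 50% growth inhibition is given as GI50. TGI is the concentration that stops growth completely.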

How the values were obtained:
Experiment in all cases: NCI-60 cell line screen, 48 h
786-0 renal = test system: 786-0 renal
A498 renal = test system: A498 renal
A549 NSCLC = test system: A549 NSCLC
ACHN renal = test system: ACHN renal
BT-549 breast = test system: BT-549 breast
CAKI-1 renal = test system: CAKI-1 renal
CCRF-CEM leukemia = test system: CCRF-CEM leukemia
COLO 205 colon = test system: COLO 205 colon
DU-145 prostate = test system: DU-145 prostate
EKVX NSCLC = test system: EKVX NSCLC
HCC-2998 colon = test system: HCC-2998 colon
HCT-116 colon = test system: HCT-116 colon
HCT-15 colon = test system: HCT-15 colon
HL-60(TB) leukemia = test system: HL-60(TB) leukemia
HOP-62 NSCLC = test system: HOP-62 NSCLC
HOP-92 NSCLC = test system: HOP-92 NSCLC
HS 578T breast = test system: HS 578T breast
HT29 colon = test system: HT29 colon
IGROV1 ovarian = test system: IGROV1 ovarian
K-562 leukemia = test system: K-562 leukemia
KM12 colon = test system: KM12 colon
LOX IMVI melanoma = test system: LOX IMVI melanoma
M14 melanoma = test system: M14 melanoma
MALME-3M melanoma = test system: MALME-3M melanoma
MCF7 breast = test system: MCF7 breast
MDA-MB-231 breast = test system: MDA-MB-231 breast
MDA-MB-435 = test system: MDA-MB-435
MDA-MB-468 breast = test system: MDA-MB-468 breast
MOLT-4 leukemia = test system: MOLT-4 leukemia
NCI-H226 lung = test system: NCI-H226 lung
NCI-H23 lung = test system: NCI-H23 lung
NCI-H460 lung = test system: NCI-H460 lung
NCI-H522 lung = test system: NCI-H522 lung
NCI/ADR-RES ovarian = test system: NCI/ADR-RES ovarian
OVCAR-3 ovarian = test system: OVCAR-3 ovarian
OVCAR-4 ovarian = test system: OVCAR-4 ovarian
OVCAR-5 ovarian = test system: OVCAR-5 ovarian
OVCAR-8 ovarian = test system: OVCAR-8 ovarian
PC-3 prostate = test system: PC-3 prostate
RPMI-8226 leukemia = test system: RPMI-8226 leukemia
RXF 393 renal = test system: RXF 393 renal
SF-268 CNS = test system: SF-268 CNS
SF-295 CNS = test system: SF-295 CNS
SF-539 CNS = test system: SF-539 CNS
SK-MEL-2 melanoma = test system: SK-MEL-2 melanoma
SK-MEL-28 melanoma = test system: SK-MEL-28 melanoma
SK-MEL-5 melanoma = test system: SK-MEL-5 melanoma
SK-OV-3 ovarian = test system: SK-OV-3 ovarian
SN12C renal = test system: SN12C renal
SNB-19 CNS = test system: SNB-19 CNS
SNB-75 CNS = test system: SNB-75 CNS
SR leukemia = test system: SR leukemia
SW-620 colon = test system: SW-620 colon
T-47D breast = test system: T-47D breast
TK-10 renal = test system: TK-10 renal
U251 CNS = test system: U251 CNS
UACC-257 melanoma = test system: UACC-257 melanoma
UACC-62 melanoma = test system: UACC-62 melanoma
UO-31 renal = test system: UO-31 renal

## Clc1ccc(CNc2nc(SCCN3CCOCC3)nc3c2cnn3CC(Cl)c2ccc(Br)cc2)cc1 (stereo not drawn)
786-0 renal
  GI50: 5.62 µM
  TGI: > 100 µM
A498 renal
  GI50: 54.1 µM
  TGI: > 100 µM
A549 NSCLC
  GI50: 4.18 µM
  TGI: > 100 µM
ACHN renal
  GI50: 4.19 µM
  TGI: > 100 µM
BT-549 breast
  GI50: 18.4 µM
  TGI: 94.6 µM
CAKI-1 renal
  GI50: 5.45 µM
  TGI: > 100 µM
CCRF-CEM leukemia
  GI50: 3.85 µM
  TGI: > 100 µM
COLO 205 colon
  GI50: 5.71 µM
  TGI: 32 µM
DU-145 prostate
  GI50: 46.4 µM
  TGI: > 100 µM
EKVX NSCLC
  GI50: 4.55 µM
  TGI: > 100 µM
HCC-2998 colon
  GI50: 4.4 µM
  TGI: > 100 µM
HCT-116 colon
  GI50: 3.81 µM
  TGI: > 100 µM
HCT-15 colon
  GI50: 3.03 µM
  TGI: 11 µM
HL-60(TB) leukemia
  GI50: 2.81 µM
  TGI: 26.8 µM
HOP-62 NSCLC
  GI50: 63 µM
  TGI: > 100 µM
HOP-92 NSCLC
  GI50: 8.71 µM
  TGI: > 100 µM
HS 578T breast
  GI50: 9.59 µM
  TGI: > 100 µM
HT29 colon
  GI50: 1.91 µM
  TGI: 4.04 µM
IGROV1 ovarian
  GI50: 65.4 µM
  TGI: > 100 µM
K-562 leukemia
  GI50: 2.85 µM
  TGI: > 100 µM
KM12 colon
  GI50: 5.39 µM
  TGI: > 100 µM
LOX IMVI melanoma
  GI50: 4.49 µM
  TGI: > 100 µM
M14 melanoma
  GI50: 6.01 µM
  TGI: > 100 µM
MALME-3M melanoma
  GI50: 3.94 µM
  TGI: 28.9 µM
MCF7 breast
  GI50: 3.45 µM
  TGI: > 100 µM
MDA-MB-231 breast
  GI50: 9.03 µM
  TGI: > 100 µM
MDA-MB-435
  GI50: 6.65 µM
  TGI: > 100 µM
MDA-MB-468 breast
  GI50: 3.3 µM
  TGI: 18.9 µM
MOLT-4 leukemia
  GI50: 2.62 µM
  TGI: 8.27 µM
NCI-H226 lung
  GI50: 5.68 µM
  TGI: > 100 µM
NCI-H23 lung
  GI50: 7.84 µM
  TGI: > 100 µM
NCI-H460 lung
  GI50: 4.57 µM
  TGI: > 100 µM
NCI-H522 lung
  GI50: 6.17 µM
  TGI: > 100 µM
NCI/ADR-RES ovarian
  GI50: 4.14 µM
  TGI: > 100 µM
OVCAR-3 ovarian
  GI50: 9.59 µM
  TGI: > 100 µM
OVCAR-4 ovarian
  GI50: 5.3 µM
  TGI: > 100 µM
OVCAR-5 ovarian
  GI50: > 100 µM
  TGI: > 100 µM
OVCAR-8 ovarian
  GI50: 17.9 µM
  TGI: > 100 µM
PC-3 prostate
  GI50: 4.3 µM
  TGI: > 100 µM
RPMI-8226 leukemia
  GI50: 3.52 µM
  TGI: > 100 µM
RXF 393 renal
  GI50: 1.72 µM
  TGI: 8.87 µM
SF-268 CNS
  GI50: 7.43 µM
  TGI: > 100 µM
SF-295 CNS
  GI50: 3.91 µM
  TGI: > 100 µM
SF-539 CNS
  GI50: 4.37 µM
  TGI: > 100 µM
SK-MEL-2 melanoma
  GI50: 13 µM
  TGI: 63.1 µM
SK-MEL-28 melanoma
  GI50: 14 µM
  TGI: > 100 µM
SK-MEL-5 melanoma
  GI50: 7.66 µM
  TGI: 21 µM
SK-OV-3 ovarian
  GI50: > 100 µM
  TGI: > 100 µM
SN12C renal
  GI50: 6.14 µM
  TGI: > 100 µM
SNB-19 CNS
  GI50: 8.34 µM
  TGI: > 100 µM
SNB-75 CNS
  GI50: 4.65 µM
  TGI: > 100 µM
SR leukemia
  GI50: 1.68 µM
  TGI: 5.63 µM
SW-620 colon
  GI50: 6.11 µM
  TGI: 91.7 µM
T-47D breast
  GI50: 3.05 µM
  TGI: > 100 µM
TK-10 renal
  GI50: 31.9 µM
  TGI: > 100 µM
U251 CNS
  GI50: 5.35 µM
  TGI: > 100 µM
UACC-257 melanoma
  GI50: 29.9 µM
  TGI: > 100 µM
UACC-62 melanoma
  GI50: 11.7 µM
  TGI: > 100 µM
UO-31 renal
  GI50: 3.65 µM
  TGI: > 100 µM
